Test results: publication PMC5965259 (Journal of medicinal chemistry, 2018)

Tested on: bloodstream form T. brucei Lister 427
Assay: ATP–bioluminescence-based bloodstream form T. brucei cell viability assay
Conditions: Trypanosoma brucei, 48 h, read-out: Tb427 EC50

Row | SMILES | EC50
1 | Cc1cc(Nc2cc(S(C)(=O)=O)cc(S(C)(=O)=O)c2)nc(N)n1 [Compound 45, N^4-(3,5-Bis(methylsulfonyl)phenyl)-6-methylpyrimidine-2,4-diamine] | > 100 µM
2 | Cc1cc(Nc2cc(Cl)c(Cl)c(Cl)c2)nc(N)n1 [Compound 64, 6-Methyl-N^4-(3,4,5-trichlorophenyl)pyrimidine-2,4-diamine] | 4.5 µM
3 | Cc1cc(Nc2ccccc2Br)nc(N)n1 [Compound 79] | > 25 µM
4 | Cc1cc(Nc2cc(Cl)cc(-c3cccc(Cl)c3)c2)nc(N)n1 [Compound 102, N^4-(3′,5-Dichloro-[1,1′-biphenyl]-3-yl)-6-methylpyrimidine-2,4-diamine] | 1.9 µM
5 | Cc1cc(Nc2cc(Cl)cc(-c3cc4ccccc4o3)c2)nc(N)n1 [Compound 112, N^4-(3-(Benzofuran-2-yl)-5-chlorophenyl)-6-methylpyrimidine-2,4-diamine] | 1.4 µM
6 | Cc1cc(NCCc2cc(Cl)cc(Cl)c2)nc(N)n1 [Compound 31, N^4-(3,5-Dichlorophenethyl)-6-methylpyrimidine-2,4-diamine] | 5.7 µM
7 | Cc1cc(Nc2cc(F)cc(F)c2)nc(N)n1 [Compound 60, N^4-(3,5-Difluorophenyl)-6-methylpyrimidine-2,4-diamine] | 70 µM
8 | Cc1cc(Nc2cccc(Br)c2)nc(N)n1 [Compound 56] | 22 µM
9 | Cc1cc(Nc2cc(-c3ccccc3)cc(-c3ccccc3)c2)nc(N)n1 [Compound 50, N^4-([1,1′:3′,1″-Terphenyl]-5′-yl)-6-methylpyrimidine-2,4-diamine] | 1.5 µM
10 | Cc1cc(Nc2cc(Cl)cc(-c3ccc4ccccc4c3)c2)nc(N)n1 [Compound 107, N^4-(3-Chloro-5-(naphthalen-2-yl)phenyl)-6-methylpyrimidine-2,4-diamine] | 1.7 µM
11 | Cc1cc(Nc2cc(Cl)cc(-c3ccsc3)c2)nc(N)n1 [Compound 113, N^4-(3-Chloro-5-(thiophen-3-yl)phenyl)-6-methylpyrimidine-2,4-diamine] | 29 µM
12 | Cc1cc(Nc2cccc(S(F)(F)(F)(F)F)c2)nc(N)n1 [Compound 54, 6-Methyl-N^4-(3-(pentafluoro-λ^6-sulfaneyl)phenyl)pyrimidine-2,4-diamine] | 14 µM
13 | CC(C)c1cc(Nc2cc(Cl)cc(Cl)c2)nc(N)n1 [Compound 10] | 4.7 µM
14 | Cc1cc(Nc2cc(Cl)cc(-c3ccc4nonc4c3)c2)nc(N)n1 [Compound 110, N^4-(3-(Benzo[c][1,2,5]oxadiazol-5-yl)-5-chlorophenyl)-6-methylpyrimidine-2,4-diamine] | 0.57 µM
15 | Cc1cc(Nc2cc(Cl)cc(-c3ccc(Cl)c(Cl)c3)c2)nc(N)n1 [Compound 103, 6-Methyl-N^4-(3′,4′,5-trichloro-[1,1′-biphenyl]-3-yl)pyrimidine-2,4-diamine] | 2.9 µM
16 | CCc1cc(Nc2cc(Cl)cc(Cl)c2)nc(N)n1 [Compound 9] | 4.7 µM
17 | Cc1cc(Nc2ccccc2)nc(N)n1 [Compound 59] | > 25 µM
18 | Cc1cc(Nc2cc(Cl)cc(Br)c2)nc(N)n1 [Compound 32, N^4-(3-Bromo-5-chlorophenyl)-6-methylpyrimidine-2,4-diamine] | 4.7 µM
19 | Nc1cc(Nc2cc(Cl)cc(Cl)c2)nc(N)n1 [Compound 26, N^4-(3,5-Dichlorophenyl)pyrimidine-2,4,6-triamine] | 14 µM
20 | Cc1cc(Nc2cc(Cl)c(F)c(Cl)c2F)nc(N)n1 [Compound 73, N^4-(3,5-Dichloro-2,4-difluorophenyl)-6-methylpyrimidine-2,4-diamine] | 10 µM
21 | Cc1cc(Nc2cc(Cl)cc(-c3ccc(-c4ccccc4)cc3)c2)nc(N)n1 [Compound 99, N^4-(5-Chloro-[1,1′:4′,1″-terphenyl]-3-yl)-6-methylpyrimidine-2,4-diamine] | 0.91 µM
22 | Nc1cnccc1Nc1cc(Cl)cc(Cl)c1 [Compound 22, N^4-(3,5-Dichlorophenyl)pyridine-3,4-diamine] | 18 µM
